In paper PMC12423892 (ACS Omega, 2025):

What was measured:
HepG-2 = assay: In vitro antiproliferative MTT assay, HepG-2; assay type: cell-based; conditions: Homo sapiens, HepG2, read-out: IC50 HepG-2
HCT-116 = assay: In vitro antiproliferative MTT assay, HCT-116; assay type: cell-based; conditions: Homo sapiens, HCT-116, read-out: IC50 HCT-116
MCF-7 = assay: In vitro antiproliferative MTT assay, MCF-7; assay type: cell-based; conditions: Homo sapiens, MCF7, read-out: IC50 MCF-7
WI-38 = assay: Cytotoxicity against normal WI-38 cells; assay type: cell-based; conditions: Homo sapiens, WI-38, read-out: IC50 WI-38
HepG2 cells [1] = assay: Cell cycle analysis, flow cytometry, HepG2; assay type: cell-based, human; conditions: treated at IC50 (3a 4.82, 6 3.33, 15 3.31 μM), 72 h, single measurement
HepG2 cells [2] = assay: Apoptosis analysis, Annexin V/PI, HepG2; assay type: cell-based, human; conditions: at IC50, 72 h, single measurement

Row | SMILES | IC50 (HCT-116) [µM] | IC50 (MCF-7) [µM] | IC50 (HepG-2) [µM] | IC50 (WI-38) [µM] | %G0-G1 (HepG2 cells [1]) [%] | %G2/M (HepG2 cells [1]) [%] | %Pre-G1 (HepG2 cells [1]) [%] | %S (HepG2 cells [1]) [%] | apoptosis early (HepG2 cells [2]) [%] | apoptosis late (HepG2 cells [2]) [%] | apoptosis total (HepG2 cells [2]) [%] | necrosis (HepG2 cells [2]) [%]
1 | CCN(CC)C(=S)N/N=C(\C)c1ccc(S(=O)(=O)N2CCC(C)CC2)cc1 [Compound 5, (E)-N,N-Diethyl-2-(1-(4-((4-methylpiperidin-1-yl)sulfonyl)phenyl)ethylidene)hydrazine-1-carbothioamide] | 15.1 ± 0.75 | 18.4 ± 0.85 | 10.7 ± 0.63 | – | – | – | – | – | – | – | – | –
2 | CNC(=O)c1cc(Oc2ccc(NC(=O)Nc3ccc(Cl)c(C(F)(F)F)c3)cc2)ccn1 [sorafenib] | 9.3 ± 0.2 | 6.72 ± 0.16 | 7.4 ± 0.25 | 35.71 ± 0.013 | – | – | – | – | – | – | – | –
3 | COc1cccc2c1C(=O)c1c(O)c3c(c(O)c1C2=O)C[C@@](O)(C(=O)CO)C[C@@H]3O[C@H]1C[C@H](N)[C@H](O)[C@H](C)O1 [doxorubicin] | 6.74 ± 0.4 | 8.19 ± 0.62 | 7.52 ± 0.31 | – | 48.26 | 21.46 | 31.28 | 30.28 | 7.43 | 21.13 | 31.28 | 2.72

The next lines start with results.

Row | IC50 (HCT-116) [µM] | IC50 (MCF-7) [µM] | SMILES | IC50 (HepG-2) [µM] | IC50 (WI-38) [µM] | %G0-G1 (HepG2 cells [1]) [%] | %G2/M (HepG2 cells [1]) [%] | %Pre-G1 (HepG2 cells [1]) [%] | %S (HepG2 cells [1]) [%] | apoptosis early (HepG2 cells [2]) [%] | apoptosis late (HepG2 cells [2]) [%] | apoptosis total (HepG2 cells [2]) [%] | necrosis (HepG2 cells [2]) [%]
4 | 87.3 ± 6.2 | 96.1 ± 5.23 | C/C(=N\N)c1ccc(S(=O)(=O)N2CCC(C)CC2)cc1 [Compound 12, (E)-1-((4-(1-hydrazineylideneethyl)phenyl)sulfonyl)-4-methylpiperidine] | 59.6 ± 3.3 | – | – | – | – | – | – | – | – | –
5 | 3.21 ± 0.21 | 5.83 ± 0.61 | CC[C@]1(O)C[C@@H]2CN(CCc3c([nH]c4ccccc34)[C@@](C(=O)OC)(c3cc4c(cc3OC)N(C)[C@H]3[C@@](O)(C(=O)OC)[C@H](OC(C)=O)[C@]5(CC)C=CCN6CC[C@]43[C@@H]65)C2)C1 [vinblastine] | 7.35 ± 0.52 | – | – | – | – | – | – | – | – | –
